Like-named read-outs stand apart in the source and are kept apart here.
Columns and labels:
GSK-3β = GSK-3β (Oryctolagus cuniculus, UniProt G1T8E2); experiment: In vitro GSK-3β activity assay (32P incorporation into substrate); type: biochemical, rabbit; details: for inhibition of phosphorylation of peptide substrate by GSK-3β: 20 mM of the salt in the assay mixture; for GSK-3β phosphorylation of I-2: 20 mM salt, GS-2 and τ protein phosphorylation not inhibited
Experimental: GSK-3β was assayed as described in the following paragraph using 0.5-1.0 units of GSK-3β per assay. […] GSK-3 buffer comprises 20 mM Tris-HCl, 10 mM MgCl2, 5 mM dithiothreitol, and has a pH of 7.5 at 20° C.
The assay mixture comprised 1×GSK-3 buffer, an amount of a kinase enzyme corresponding to 0.5-1.0 unit of activity, a substrate, and 200 μM [γ^32P]-ATP (approximately 500 μCi/μmol). The assay mixture was incubated for a selected period of time following which incorporation of ^32P into the substrate was determined by standard methods.
When I-2 was used as the substrate for […] in the assay, I-2 was present at a concentration of 50 μg/ml. […] The activities of protein kinase A (PKA), mitogen-activating protein kinase (ERK-1/MAP kinase), and casein kinase II (CKII) were assayed under conditions similar to those used to assay […] activity, except that β-mercaptoethanol was included in the PKA assays.

IMPase = IMPase (Homo sapiens, UniProt P29218); details: Atack et al., 1993; cited from earlier work
Chain of IMPase (P29218 whole entry): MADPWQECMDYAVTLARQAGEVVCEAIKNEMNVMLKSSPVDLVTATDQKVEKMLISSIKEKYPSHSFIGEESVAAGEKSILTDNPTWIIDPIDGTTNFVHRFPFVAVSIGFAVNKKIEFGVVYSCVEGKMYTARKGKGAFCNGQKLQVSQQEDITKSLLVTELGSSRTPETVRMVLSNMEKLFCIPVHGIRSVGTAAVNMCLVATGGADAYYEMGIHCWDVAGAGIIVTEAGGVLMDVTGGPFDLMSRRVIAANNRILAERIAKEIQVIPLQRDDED

Xenopus laevis embryo = experiment: Dorsalization and development of treated or microinjected Xenopus embryos; type: in vivo
Experimental: Xenopus eggs were fertilized in vitro according to well established protocols (Peng, 1991, in Appendix A of Methods in Cell Biology, Kay et al., eds., Academic Press Inc, San Diego). Microinjection of embryos was performed using embryos at the 1-cell to 32-cell stage, and a volume of 5-10 nl was injected into each embryo.
L-690,330 was dissolved in water to form a solution having a concentration of L-690,330 in the range of 0.1 to 10 mM, and 5 to 10 nl of the L-690,330 solution was injected into the ventral vegetal region of 4, 8, 16, and 32 cell embryos. All four cells of individual 4-cell embryos were injected in separate experiments.

[1] = molecular target: T1, inositol monophosphatase (IMPase) (Xenopus laevis, UniProt P29219); experiment: IMPase activity in lysates prepared from Xenopus embryos; type: biochemical
T1 construct: The thirty embryos were then lysed in 300 μl of IMPB; endogenous in cells; host or cells: Xenopus embryos (32-cell stage lysate supernatant; 8- to 16-cell stage embryos injected in vivo)
T1 sequence (P29219 whole entry): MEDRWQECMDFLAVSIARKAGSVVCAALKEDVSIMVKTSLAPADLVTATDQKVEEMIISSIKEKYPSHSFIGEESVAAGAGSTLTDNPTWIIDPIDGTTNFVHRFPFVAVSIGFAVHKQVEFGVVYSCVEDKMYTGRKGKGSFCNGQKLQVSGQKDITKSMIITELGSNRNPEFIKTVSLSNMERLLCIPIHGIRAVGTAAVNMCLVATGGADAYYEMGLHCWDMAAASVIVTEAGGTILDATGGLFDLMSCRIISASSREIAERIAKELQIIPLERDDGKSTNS
Experimental: Thirty Xenopus embryos at the 32-cell stage were washed with 1 ml of 50 mM Tris, pH 7.8, 250 mM KCl, 3 mM MgCl2 (IMPB). The thirty embryos were then lysed in 300 μl of IMPB. The lysate was centrifuged for 5 minutes at 20,000×g at 4° C. and the resulting lysate supernatant was recovered. […] Each lysate supernatant mixture was then incubated at room temperature for 5 minutes. One μl of ^3H-inositol-1-phosphate was added to each lysate supernatant mixture, and the incubation was continued for an additional 25 minutes. Each lysate supernatant mixture was then diluted with 1.0 ml of 0.1×MMR, boiled for 5 minutes, and applied to Dowex columns as described (Berridge et al., 1983, Biochem. J. 212:473-482). Inositol was not retained by the Dowex column, and inositol-1-phosphate was eluted by application of 3 ml of 0.1 M formic acid/1.5 M ammonium formate (Berridge et al., 1983, supra). Each assay was repeated two to four times, and similar results were obtained among all replicates.

[2] = molecular target: T1, inositol monophosphatase (IMPase); experiment: IMPase activity in vivo in injected ventral-vegetal blastomeres; details: 10 nl of 5 mM L-690,330 microinjected into blastomeres
Experimental: Following dilution, 10 nl of the diluted ^3H-inositol-1-phosphate solution was injected into a single ventral-vegetal blastomere of an embryo which was at the 8- to 16-cell stage. […] The lysate was prepared and applied to Dowex columns as described above.

Xenopus embryos = experiment: Second axis formation in Xenopus embryos injected with DN-GSK-3 mRNA with or without myo-inositol; type: in vivo, Xenopus laevis
Experimental: mRNA specifying DN-GSK-3 was microinjected into the subequatorial region of a ventral-vegetal blastomere in an embryo at the 16-cell stage. A volume of either 5 nl or 10 nl was microinjected depending upon the concentration of mRNA in the solution being microinjected. The same procedure was used to microinject myo-inositol into an embryo. In most experiments, 10 embryos were harvested at stage 8 to assess the level of DN-GSK-3protein expressed from the injected mRNA, and the level of DN-GSK-3protein in other embryos was assessed at stage 30-35.

Chain of GSK-3β (G1T8E2 1-432): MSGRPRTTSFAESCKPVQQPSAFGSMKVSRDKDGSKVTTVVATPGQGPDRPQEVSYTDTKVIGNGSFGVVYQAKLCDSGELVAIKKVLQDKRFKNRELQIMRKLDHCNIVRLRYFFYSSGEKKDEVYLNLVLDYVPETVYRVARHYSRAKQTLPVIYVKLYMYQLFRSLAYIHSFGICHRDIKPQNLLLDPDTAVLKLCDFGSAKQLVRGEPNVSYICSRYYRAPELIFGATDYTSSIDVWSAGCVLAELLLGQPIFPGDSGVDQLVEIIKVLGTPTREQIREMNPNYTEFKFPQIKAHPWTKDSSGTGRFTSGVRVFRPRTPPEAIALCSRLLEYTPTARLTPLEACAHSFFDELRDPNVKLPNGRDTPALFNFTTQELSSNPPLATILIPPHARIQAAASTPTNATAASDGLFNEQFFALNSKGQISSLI

[Cl-].[Cs+] [CsCl]
inhibition of phosphorylation of peptide substrate by GSK-3β (GSK-3β): Little inhibition

[Cl-].[K+] [KCl]
inhibition of phosphorylation of peptide substrate by GSK-3β (GSK-3β): Little inhibition | GSK-3β phosphorylation of I-2 (GSK-3β): partially inhibited

CC(Oc1ccc(O)cc1)(P(=O)(O)O)P(=O)(O)O [L-690,330]
potency as inhibitor of IMPase activity relative to lithium (IMPase): approximately thousand-fold | dorsalization of Xenopus embryo (Xenopus laevis embryo; 0.3 M LiCl for 6 minutes at 32-cell stage, or injection of 10 nl of 5 mM L-690,330): did not exhibit dorsalization | toxicity in microinjected embryos (Xenopus laevis embryo; highest doses of L-690,330 used): mild nonspecific toxicity | effect on development of Xenopus embryos (Xenopus laevis embryo; microinjected embryos): no discernible effect | IC50 ([1]; read-out: concentration giving 50% inhibition of in vitro IMPase activity, lysates prepared from Xenopus embryos): ~1 µM | IC50 ([1]; read-out: concentration of L-690,330 giving approximately 50% inhibition of IMPase activity, FIG. 1 Panel A legend): ~1000 µM | level of inhibition of IMPase activity in vivo compared with 10 nl of 0.3 M LiCl [2]: several times greater

Cl.N [NH4Cl]
inhibition of phosphorylation of peptide substrate by GSK-3β (GSK-3β): Little inhibition

[Cl-].[Na+] [NaCl]
inhibition of phosphorylation of peptide substrate by GSK-3β (GSK-3β): Little inhibition | GSK-3β phosphorylation of I-2 (GSK-3β): partially inhibited

Cn1cc(C2=C(c3cn(CCCSC(=N)N)c4ccccc34)C(=O)NC2=O)c2ccccc21 [Ro31-8220]
IC50 (GSK-3β; read-out: concentration giving approximately 50% inhibition of GSK-3β activity, assays of Example 1, 0 to 10 μM tested): ~40 nM

O[C@H]1[C@H](O)[C@@H](O)[C@H](O)[C@@H](O)[C@H]1O [myo-inositol]
effect of coinjection on second axis induction by DN-GSK-3 (Xenopus embryos; coinjected with DN-GSK-3 mRNA into ventral-vegetal cell of 16-cell embryos): clearly reduced the frequency and the extent of second axis induction | effect on synthesis of DN-GSK-3 protein (Xenopus embryos; in vivo): did not inhibit

From patent publication US6441053B1, “Inhibitors of glycogen synthase kinase-3 and methods for identifying and using the same” (The Trustees of the University of Pennsylvania, priority 1996, dated 2002)
